Assay results published in article PMC10065799, “High-throughput profiling of sequence recognition by tyrosine kinases and SH2 domains using bacterial peptide display” (eLife, 2023).
Square brackets hold non-standard residues; d marks the D form. pY = N[C@@H](Cc1ccc(OP(=O)(O)O)cc1)C(=O)O

Legend:
c-Abl kinase domain [1] = biological target: T1, c-Abl kinase domain (Mus musculus, UniProt P00520); test: RP-HPLC assay to measure peptide phosphorylation kinetics; type: biochemical; conditions: purified peptide substrate
T1 sequence (P00520 242-493 limits assumed): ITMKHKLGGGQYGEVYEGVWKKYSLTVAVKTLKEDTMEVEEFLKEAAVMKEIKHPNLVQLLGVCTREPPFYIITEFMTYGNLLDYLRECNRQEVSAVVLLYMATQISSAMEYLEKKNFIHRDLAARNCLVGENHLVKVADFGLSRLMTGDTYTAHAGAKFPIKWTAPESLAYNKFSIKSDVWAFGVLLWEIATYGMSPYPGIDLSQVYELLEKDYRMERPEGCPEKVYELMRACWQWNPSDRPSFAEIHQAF

c-Src kinase domain [2] = biological target: T2, c-Src kinase domain (Homo sapiens, UniProt P12931); test: pTyr-Var library bacterial peptide display kinase screen (enrichment scores); type: biochemical; conditions: for Screen: sheet "Src";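 as to c-Src hit?: Hit requires p below 0.05 and at least twofold variant vs reference change plus filters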;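 as to screen: log2 fold change in enrichment of variant over reference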
Fer kinase domain = test: as above; type: biochemical, mouse; conditions: for Screen: sheet "Fer"
EPHB1 kinase domain = test: as above; type: biochemical, human; conditions: for Screen (variant relative to reference peptide, measured in the pTyr-Var library screen): sheet "EPHB1", variant seq vs reference seq, bacterial peptide display enrichment
EPHB2 kinase domain = test: as above; type: biochemical, human; conditions: for Screen: sheet EPHB2;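 as to screen: log2 fold change in enrichment of variant over reference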
c-Abl kinase domain [3] = biological target: T1, c-Abl kinase domain; test: as above; type: biochemical
Fyn kinase domain = test: as above; type: biochemical, human;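 as to Fyn hit?: Hit requires p below 0.05 and at least twofold variant vs reference change plus filters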
Hck kinase domain = test: as above; type: biochemical, human
Jak2 = test: as above; type: biochemical, human
AncSZ kinase domain = test: as above; type: biochemical;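 as to AncSZ hit?: Hit requires p below 0.05 and at least twofold variant vs reference change plus filters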
Fes = test: as above; type: biochemical
FGFR1 kinase domain = test: as above; type: biochemical, human
FGFR3 kinase domain = test: as above; type: biochemical, human
MERTK kinase domain = test: as above; type: biochemical, human
c-Src SH2 domain = c-Src SH2 domain (Homo sapiens, UniProt P12931); test: pTyr-Var library SH2 domain screen with SH2-dynabeads (enrichment scores); conditions: sheet c-Src
SHP2 C-SH2 domain = test: as above
Grb2 SH2 domain = test: as above
c-Src kinase domain [4] = biological target: T2, c-Src kinase domain; test: RP-HPLC assay to measure peptide phosphorylation kinetics; type: biochemical; conditions: purified peptide substrate
[5] = biological target: mouse c-Abl kinase domain (residues 232-502) (mouse) (UniProt P00520)
mouse c-Abl kinase domain (residues 232-502) (mouse), sequence (P00520 232-502): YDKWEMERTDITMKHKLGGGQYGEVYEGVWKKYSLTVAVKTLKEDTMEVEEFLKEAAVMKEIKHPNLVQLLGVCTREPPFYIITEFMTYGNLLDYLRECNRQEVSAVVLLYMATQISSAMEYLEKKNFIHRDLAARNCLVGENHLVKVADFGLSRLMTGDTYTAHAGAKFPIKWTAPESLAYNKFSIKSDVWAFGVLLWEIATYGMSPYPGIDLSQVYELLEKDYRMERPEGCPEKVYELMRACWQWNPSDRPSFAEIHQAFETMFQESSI

[6] = biological target: human c-Src SH2 domain (residues 143-250) (human, UniProt P12931-1 143-250, biotin on the Avi tag (co-expression with the biotin ligase BirA)); test: fluorescence polarisation; competition: unlabeled phosphopeptide serially diluted against 30 nM fluorescent peptide and 240 nM (1.5 x KD) c-Src SH2; same buffer; 25 °C; cubic binding equation; conditions: both partners purified
[7] = variant peptide versus its reference peptide in the pTyr-Var library screen
[8] = variant peptide relative to its reference peptide, pTyr-Var library screen enrichment
[9] = effect of variant peptide relative to its reference peptide in the pTyr-Var library screen (enrichment scores)
[10] = effect of the variant peptide relative to its reference peptide in the pTyr-Var library screen
[11] = value of the variant peptide against its reference peptide in the pTyr-Var library screen with Fer
[12] = mean of log2 of enrichment over R1-R4
[13] = pTyr-Var library, enrichment score, replicate 1
[14] = pTyr-Var library, enrichment score, replicate 3
[15] = pTyr-Var library, enrichment score, replicate 4
[16] = variant versus reference peptide
[17] = variant versus reference peptide, significant hit TRUE/FALSE
[18] = mean of log2(variant) minus mean of log2(reference)
[19] = mean of log2 enrichment of variant peptide, n = 5
[20] = mean of log2 enrichment of variant peptide, n = 4
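For c-Abl hit? in this document: Hit requires p below 0.05 and at least twofold variant vs reference change plus filters.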

Ac-LFSEYASVQV-NH2 [SIRPA_Y496_P491L, pTyr-Var library variant peptide, non-canonical c-Abl substrate]
Phosphorylation Rate (c-Abl kinase domain [1]): 0.182 s⁻¹ | Screen (c-Src kinase domain [2]; [7]): -0.1318 | Screen (Fer kinase domain; [8]): 0.5649 | Screen (variant relative to reference peptide, measured in the pTyr-Var library screen) (EPHB1 kinase domain): 0.2454 | Screen (EPHB2 kinase domain; [9]): 0.1232

ELANLYHHVWM [BICD2_Y538_C542W]
Screen (c-Src kinase domain [2]; [10]): 0.8025 | Screen (c-Abl kinase domain [3]; fig5-data2, sheet "Abl", Screen for the variant/reference peptide pair, pTyr-Var library): -0.8428 | Screen (Fer kinase domain; [11]): 2.831 | Screen (EPHB1 kinase domain; sheet EPHB1, effect of the variant peptide relative to its reference peptide in the pTyr-Var library screen (enrichment scores)): 3.328 | Screen (EPHB2 kinase domain; [9]): 1.55

ATGLIYIGSHD [AASDH_Y870_T865A]
c-Src mean of log2(enrichment) (c-Src kinase domain [2]; [12]): -1.071 | c-Src enrich. R1 (c-Src kinase domain [2]; [13]): 0.5345 | c-Src enrich. R3 (c-Src kinase domain [2]; [14]): 0.3128 | c-Src enrich. R4 (c-Src kinase domain [2]; [15]): 0.6339 | c-Src difference (mean log2 variant - mean log2 reference) (c-Src kinase domain [2]; [16]): 0.2235 | c-Src hit? (c-Src kinase domain [2]; [17]): FALSE | Fyn mean of log2(enrichment) (Fyn kinase domain; [12]): -1.279 | Fyn enrich. R1 (Fyn kinase domain; [13]): 0.5717 | Fyn enrich. R3 (Fyn kinase domain; [14]): 0.2668 | Fyn enrich. R4 (Fyn kinase domain; [15]): 0.4414 | Fyn difference (mean log2 variant - mean log2 reference) (Fyn kinase domain; [16]): 0.2007 | Fyn hit? (Fyn kinase domain; [17]): FALSE | Hck mean of log2(enrichment) (Hck kinase domain; mean of log2(variant) / mean of log2(reference), R1-R4): 0.4694 | Hck enrich. R1 (Hck kinase domain; [13]): 0.8875 | Hck enrich. R3 (Hck kinase domain; [14]): 0.3766 | Hck enrich. R4 (Hck kinase domain; [15]): 0.194 | Hck difference (variant - reference) (Hck kinase domain; [16]): 0.009668 | Hck hit? (Hck kinase domain; [17]): FALSE | c-Abl mean of log2(enrichment) (c-Abl kinase domain [3]; [12]): -0.2804 | c-Abl enrich. R1 (c-Abl kinase domain [3]; [13]): 0.635 | c-Abl enrich. R3 (c-Abl kinase domain [3]; [14]): 0.7155 | c-Abl enrich. R4 (c-Abl kinase domain [3]; [15]): 1.499 | c-Abl hit? (c-Abl kinase domain [3]; [17]): FALSE | Jak2 mean of log2(enrichment) (Jak2; mean of log2 of enrichment over R1-R3): -0.3116 | Jak2 enrich. R1 (Jak2; [13]): 0.8629 | Jak2 enrich. R3 (Jak2; [14]): 0.7054 | Jak2 difference (mean log2 variant - mean log2 reference) (Jak2; [16]): 0.1735 | Jak2 hit? (Jak2; [17]): FALSE | AncSZ mean of log2(enrichment) (AncSZ kinase domain; mean of log2 of enrichment over R1-R5): -0.2868 | AncSZ enrich. R1 (AncSZ kinase domain; [13]): 0.8707 | AncSZ enrich. R3 (AncSZ kinase domain; [14]): 0.8843 | AncSZ enrich. R4 (AncSZ kinase domain; [15]): 0.9628 | AncSZ enrich. R5 (AncSZ kinase domain; pTyr-Var library, enrichment score, replicate 5): 0.6734 | AncSZ difference (mean log2 variant - mean log2 reference) (AncSZ kinase domain; [16]): 0.1813 | AncSZ hit? (AncSZ kinase domain; [17]): FALSE | Fer mean of log2(enrichment) (Fer kinase domain; [12]): -1.02 | Fer enrich. R1 (Fer kinase domain; [13]): 0.4993 | Fer enrich. R3 (Fer kinase domain; [14]): 0.7968 | Fer enrich. R4 (Fer kinase domain; [15]): 0.4647 | Fer difference (mean log2 variant - mean log2 reference) (Fer kinase domain; [16]): 0.2779 | Fer hit? (Fer kinase domain; [17]): FALSE | Fes mean of log2(enrichment) (Fes; mean of log2 of enrichment over R1-R6): 0.1901 | Fes enrichment (mean) (Fes; pTyr-Var library, enrichment score, mean of replicates R1-R6): 1.145 | Fes difference (mean log2 variant - mean log2 reference) (Fes; [16]): 0.6008 | difference (FGFR1 kinase domain; [18]): -0.06079 | mean of log2(variant) (FGFR1 kinase domain; [19]): -1.25 | difference (FGFR3 kinase domain; [18]): 0.03027 | mean of log2(variant) (FGFR3 kinase domain; [19]): -0.6189 | difference (EPHB1 kinase domain; [18]): 0.11 | mean of log2(variant) (EPHB1 kinase domain; [20]): -0.4876 | difference (EPHB2 kinase domain; [18]): 0.3789 | mean of log2(variant) (EPHB2 kinase domain; [20]): -0.4994 | difference (MERTK kinase domain; [18]): 0.7784 | mean of log2(variant) (MERTK kinase domain; [20]): -0.9082 | difference (c-Src SH2 domain; [18]): -0.1239 | mean of log2(variant) (c-Src SH2 domain; mean of log2 enrichment of variant peptide, R1-R3): -0.9155 | difference (SHP2 C-SH2 domain; SHP2-C SH2, mean of log2(variant) minus mean of log2(reference)): -0.2085 | mean of log2(variant) (SHP2 C-SH2 domain; SHP2-C SH2, mean of log2 enrichment of variant, R1-R3): -0.9356 | hit? (SHP2 C-SH2 domain; SHP2-C SH2, variant versus reference significant hit call): FALSE | difference (Grb2 SH2 domain; Grb2 SH2, mean of log2(variant) minus mean of log2(reference)): -0.4428 | mean of log2(variant) (Grb2 SH2 domain; Grb2 SH2, mean of log2 enrichment of variant, R1-R3): -0.4021 | hit? (Grb2 SH2 domain; Grb2 SH2, variant versus reference significant hit call): FALSE

Ac-SVEELYAIPPD-NH2 [PEAK1_Y797, pTyr-Var library phosphosite peptide]
Phosphorylation Rate (c-Abl kinase domain [1]): 0.407 s⁻¹

Ac-VASSLYDIFAR-NH2 [GLB1_Y294_L297F, pTyr-Var library variant phosphosite peptide]
Phosphorylation Rate (c-Src kinase domain [4]): 1.477 s⁻¹ | Screen (c-Src kinase domain [2]; [10]): 1.173 | Screen (Fer kinase domain; [11]): 0.6922 | Screen (EPHB2 kinase domain; [9]): 0.8382

Ac-EGWQVYRLGAR-NH2 [MISP_Y95, pTyr-Var library phosphosite peptide, non-canonical c-Src substrate]
Phosphorylation Rate (c-Src kinase domain [4]): 0.701 s⁻¹

DNKALYDICFR [TUBB3_Y208_E205K]
Screen (c-Src kinase domain [2]; [7]): -0.8548 | Screen (Fer kinase domain; [8]): -1.219 | Screen (variant relative to reference peptide, measured in the pTyr-Var library screen) (EPHB1 kinase domain): -0.6777 | Screen (EPHB2 kinase domain; effect of the variant relative to its reference peptide in the pTyr-Var library screen): -1.114

Ac-GAPEVIYATPGAKKKG-NH2 [AblTide (2014) peptide Ac-…-NH2]
KM (μM) of phosphorylation, Michaelis-Menten analysis, ADP-Quest assay [5]: 35 µM

B1: ACTB_Y240 phosphopeptide Ac-QSLEKS(pY)ELPDGG-NH2 (peptide)
peptide: Ac-QSLEKS[pY]ELPDGG-NH2
SMILES: CC(=O)N[C@@H](CCC(N)=O)C(=O)N[C@@H](CO)C(=O)N[C@@H](CC(C)C)C(=O)N[C@@H](CCC(=O)O)C(=O)N[C@@H](CCCCN)C(=O)N[C@@H](CO)C(=O)N[C@@H](Cc1ccc(OP(=O)(O)O)cc1)C(=O)N[C@@H](CCC(=O)O)C(=O)N[C@@H](CC(C)C)C(=O)N1CCC[C@H]1C(=O)N[C@@H](CC(=O)O)C(=O)NCC(=O)NCC(N)=O
notes: source: synthetic peptide (synthesized in-house, RP-HPLC purified)
binding result [6]: binds

B2: ACTB_Y240_P243L phosphopeptide Ac-QSLEKS(pY)ELLDGG-NH2 (peptide)
peptide: Ac-QSLEKS[pY]ELLDGG-NH2
SMILES: CC(=O)N[C@@H](CCC(N)=O)C(=O)N[C@@H](CO)C(=O)N[C@@H](CC(C)C)C(=O)N[C@@H](CCC(=O)O)C(=O)N[C@@H](CCCCN)C(=O)N[C@@H](CO)C(=O)N[C@@H](Cc1ccc(OP(=O)(O)O)cc1)C(=O)N[C@@H](CCC(=O)O)C(=O)N[C@@H](CC(C)C)C(=O)N[C@@H](CC(C)C)C(=O)N[C@@H](CC(=O)O)C(=O)NCC(=O)NCC(N)=O
notes: as for B1
binding result [6]: binds

B3: CCDC39_Y593 phosphopeptide Ac-QRKQQL(pY)TAMEEG-NH2 (peptide)
peptide: Ac-QRKQQL[pY]TAMEEG-NH2
SMILES: CSCC[C@H](NC(=O)[C@H](C)NC(=O)[C@@H](NC(=O)[C@H](Cc1ccc(OP(=O)(O)O)cc1)NC(=O)[C@H](CC(C)C)NC(=O)[C@H](CCC(N)=O)NC(=O)[C@H](CCC(N)=O)NC(=O)[C@H](CCCCN)NC(=O)[C@H](CCCNC(=N)N)NC(=O)[C@H](CCC(N)=O)NC(C)=O)[C@@H](C)O)C(=O)N[C@@H](CCC(=O)O)C(=O)N[C@@H](CCC(=O)O)C(=O)NCC(N)=O
notes: as for B1
binding result [6]: binds
